Results: patent US20190125888A1, “TARGETED CONJUGATES AND PARTICLES AND FORMULATIONS THEREOF” (priority 2015, published 2019)
Where two headings read alike, the source gives them in different places. Where a SMILES comes first, the peptide text is derived from it. Bridges are numbered along the chain shown (N, C = ends). [ ]: non-standard residue; d: D form. The star is where a group is joined. X1 = COc1cc2cc(c1Cl)N(C)C(=O)C[C@H](OC(=O)[C@H](C)N(C)C(=O)CCS*)[C@]1(C)O[C@H]1[C@H](C)[C@@H]1C[C@@](O)(NC(=O)O1)[C@H](OC)/C=C/C=C(\C)C2

Tests used:
[1] = Ligand charge of maytansinoid conjugates; format: physicochemical
[2] = system: NCI-H524 (ATCC) human lung cancer cells; format: cell-based
Experimental: FIG. 1 is a graph of various conjugates represented as bars and showing on the Y-axis their activity in an H524 proliferation assay with and without competition by octreotide. […] This illustrates the suprprising finding that only maytansinoid conjugates show activity that is dependent on the receptor.
Conjugates were assessed in an in vitro assay evaluating inhibition of cell proliferation. NCI-H524 (ATCC) human lung cancer cells were plated in 96 well, V-bottomed plates (Costar) at a concentration of 5,000 cells/well and 24 hours later were treated with compound for 6 hours and further incubated 66 hours. Compound starting dose was 20 μM and three fold serial dilutions were done for a total of ten points. After 6 hours of treatment, cells were spun down, the drug containing media was removed, and fresh complete medium was added and used to resuspend the cells, which were spun again. After removal of the wash media, the cells were resuspended in complete medium, then transferred into white walled, flat bottomed 96 well plates. […] Proliferation was measured using CellTiter Glo reagent using the standard protocol (Promega) and a Glomax multi+detection system (Promega). Percent proliferation inhibition was calculated using the following formula: % inhibition=(control-treatment)/control*100. Control is defined as vehicle alone. IC50 curves were generated using the nonlinear regression analysis (four parameter) with GraphPad Prism 6.
Conjugates were tested for their activity dependence on the somatostatin receptor. Active agent Z in the conjugate was selected from auristatin, carbazitaxel, DM1, doxorubicin, platinum, SN-38 and vinblastine. Active agent Z is connected to octreotide with various linkers. Proliferation IC50 values of the conjugates were measured. Proliferation IC50 values of the conjugates without octreotide competition were also measured. The ratio of IC50 with octreotide competition and IC50 without octreotide competition is an indicator of whether activity is at least particially dependent on bind to the somatostatin receptor. […] Therefore, the activity of conjugates comprising DM1 is dependent on the binding to the somatostatin receptor.

[3] = Chrom LogP of maytansinoid conjugates; format: physicochemical
[4] = target: human SSTR2 (Homo sapiens, UniProt P30874); test: Radioligand-receptor binding assay, [125I] somatostatin, membranes from SSTR2 expressing CHO-K1 cells
Experimental: These conjugates were also assessed in an in vitro assay evaluating binding to the somatostatin receptor 2 (SSTR2). A radioligand-receptor binding assay was conducted at Eurofins Panlabs (Taiwan) to determine the affinity of conjugates described herein to the SSTR2. The assay measures binding of radiolabeled ligand, [^125I] labeled somatostatin, to human SSTR2 using membrane preparations from SSTR2 expressing CHO-K1 cells. Membranes were incubated with radiolabeled somatostatin (0.03 nM) in the presence of conjugate/compound starting at a dose of 10 uM using 6× serial dilutions to obtain a 10-pt curve. After a four hour incubation, membranes were filtered and washed 3× and counted to determine the remaining [^125I] somatostatin bound to the receptor. IC50 values were determined by a non-linear, least squares regression analysis using MathIQ™ (ID Business Solutions Ltd., UK).

[5] = system: human NCI-H69 SCLC; test: H69 xenograft efficacy study, tumor growth inhibition; format: in vivo, mice
Experimental: Applicants assessed the activity of maytansinoid conjugates in vivo. In these experiments, the ability of conjugates to affect the growth of human NCI-H69 SCLC was tested. For the in vivo study, 8 week old female NCR nude mice were inoculated subcutaneously into the right flank with 2 million cells in 1:1 RPMI 1640 (Invitrogen, Carlsbad, Calif.)/Matrigel® (BD Biosciences, San Jose, Calif.). Tumor measurements were taken twice weekly, using vernier calipers. Tumor volume was calculated using the formula: V=0.5×width×width×length.
When tumors approached a volume of 200 mm^3, mice were randomized into four groups of ten animals. Mice were treated with vehicle control (10% propylene glycol in water for injection) and maytansinoid conjugates (10% propylene glycol in water for injection). Final tumor volumes were analyzed using with a one-way analysis of variance and Tukey multiple comparison test.

[6] = read-out: H524 IC50 6 h, 6 hours treatment, further 66 hours incubation
[7] = read-out: H524 IC50 with 100 μM octreotide 6 h, with 100 μM octreotide competition, 6 h treatment

human SSTR2, sequence (P30874 whole entry): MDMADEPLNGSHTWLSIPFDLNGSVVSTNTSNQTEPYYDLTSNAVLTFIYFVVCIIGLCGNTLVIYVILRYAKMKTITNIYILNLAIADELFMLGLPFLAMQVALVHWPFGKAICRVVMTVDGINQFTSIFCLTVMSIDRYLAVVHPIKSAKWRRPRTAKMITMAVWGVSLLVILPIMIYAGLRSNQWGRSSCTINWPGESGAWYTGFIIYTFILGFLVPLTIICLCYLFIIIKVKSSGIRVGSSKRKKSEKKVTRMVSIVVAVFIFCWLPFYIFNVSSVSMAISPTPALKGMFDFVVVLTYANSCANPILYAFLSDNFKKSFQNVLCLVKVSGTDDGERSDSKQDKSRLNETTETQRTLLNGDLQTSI

SMILES | Ligand charge [1] | IC50 [2, 6] | IC50 [2, 7] | chromatographic logP [3] | Ki [4] | TGI % Day 13 ([5]; 0.7 mg/kg once weekly for two doses, Day 13) | TGI % Day 17 ([5]; 0.7 mg/kg once weekly for two doses, Day 17) | TGI % Day 20 ([5]; 0.7 mg/kg once weekly for two doses, Day 20) | TGI % Day 24 ([5]; 0.7 mg/kg once weekly for two doses, Day 24) | TGI % Day 30 ([5]; 0.7 mg/kg once weekly for two doses, Day 30) | TGI % at day 22 ([5]; Dose 0.67 × 2 mg/kg, total dose 1.34 mg/kg)
CCCC(=O)N[C@H](Cc1ccccc1)C(=O)N[C@H]1CSSC[C@@H](C(=O)N[C@H](C(=O)NCCSSCCC(=O)N(C)[C@@H](C)C(=O)O[C@H]2CC(=O)N(C)c3cc(cc(OC)c3Cl)C/C(C)=C/C=C/[C@@H](OC)[C@@]3(O)C[C@H](OC(=O)N3)[C@@H](C)[C@@H]3O[C@@]23C)[C@@H](C)O)NC(=O)[C@H]([C@@H](C)O)NC(=O)[C@H](CCCCN)NC(=O)[C@@H](Cc2c[nH]c3ccccc23)NC(=O)[C@H](Cc2ccc(O)cc2)NC1=O [Conjugate 19] | +1 | 6.9 nM | 111 nM | 2.88 |  |  |  |  |  |  | 
COc1cc2cc(c1Cl)N(C)C(=O)C[C@H](OC(=O)[C@H](C)N(C)C(=O)CCSSCCNC(=O)[C@@H](NC(=O)[C@@H]1CSSC[C@H](NC(=O)[C@@H](Cc3ccccc3)NC(=O)NC3CCCCC3)C(=O)N[C@@H](Cc3ccc(O)cc3)C(=O)N[C@H](Cc3c[nH]c4ccccc34)C(=O)N[C@@H](CCCCN)C(=O)N[C@@H]([C@@H](C)O)C(=O)N1)[C@@H](C)O)[C@]1(C)O[C@H]1[C@H](C)[C@@H]1C[C@@](O)(NC(=O)O1)[C@H](OC)/C=C/C=C(\C)C2 [Conjugate 20] | +1 | 11 nM | 52 nM | 3.1 |  |  |  |  |  |  | 
COc1cc2cc(c1Cl)N(C)C(=O)C[C@H](OC(=O)[C@H](C)N(C)C(=O)CCSSC[C@H](NC(=O)[C@@H]1CSSC[C@H](NC(=O)[C@H](N)Cc3c[nH]c4ccccc34)C(=O)N[C@@H](Cc3ccc(O)cc3)C(=O)N[C@H](Cc3c[nH]c4ccccc34)C(=O)N[C@@H](CCCCN)C(=O)N[C@@H]([C@@H](C)O)C(=O)N1)C(N)=O)[C@]1(C)O[C@H]1[C@H](C)[C@@H]1C[C@@](O)(NC(=O)O1)[C@H](OC)/C=C/C=C(\C)C2 [Conjugate 24] (H-[dW]CY[dW]KTCC(X1)-NH2; disulfide 2-7) | +2 | 140 nM | 214 nM | 2.03 |  |  |  |  |  |  | 
COc1cc2cc(c1Cl)N(C)C(=O)C[C@H](OC(=O)[C@H](C)N(C)C(=O)CCSSC[C@H](NC(=O)[C@@H]1CSSC[C@H](NC(=O)[C@@H](Cc3ccccc3)NCc3ccccc3)C(=O)N[C@@H](Cc3ccc(O)cc3)C(=O)N[C@H](Cc3c[nH]c4ccccc34)C(=O)N[C@@H](CCCCN)C(=O)N[C@@H]([C@@H](C)O)C(=O)N1)C(N)=O)[C@]1(C)O[C@H]1[C@H](C)[C@@H]1C[C@@](O)(NC(=O)O1)[C@H](OC)/C=C/C=C(\C)C2 [Conjugate 43] | +2 | 7.2 nM | 20 nM |  | 0.075 nM |  |  |  |  |  | 
COc1cc2cc(c1Cl)N(C)C(=O)C[C@H](OC(=O)[C@H](C)N(C)C(=O)CCSSCCC(=O)NC[C@H](NC(=O)[C@@H]1CSSC[C@H](NC(=O)[C@H](N)Cc3ccccc3)C(=O)N[C@@H](Cc3ccc(O)cc3)C(=O)N[C@H](Cc3c[nH]c4ccccc34)C(=O)N[C@@H](CCCCN)C(=O)N[C@@H]([C@@H](C)O)C(=O)N1)C(N)=O)[C@]1(C)O[C@H]1[C@H](C)[C@@H]1C[C@@](O)(NC(=O)O1)[C@H](OC)/C=C/C=C(\C)C2 [Conjugate 44] | +2 | 3.6 nM | 218 nM |  | 0.022 nM | 58.9% | 56.7% | 59.6% | 53.1% | 56.1% | 60%
COc1cc2cc(c1Cl)N(C)C(=O)C[C@H](OC(=O)[C@H](C)N(C)C(=O)CCSSC[C@H](NC(C)=O)C(=O)NC[C@H](NC(=O)[C@@H]1CSSC[C@H](NC(=O)[C@H](N)Cc3ccccc3)C(=O)N[C@@H](Cc3ccc(O)cc3)C(=O)N[C@H](Cc3c[nH]c4ccccc34)C(=O)N[C@@H](CCCCN)C(=O)N[C@@H]([C@@H](C)O)C(=O)N1)C(N)=O)[C@]1(C)O[C@H]1[C@H](C)[C@@H]1C[C@@](O)(NC(=O)O1)[C@H](OC)/C=C/C=C(\C)C2 [Conjugate 45] | +2 | 1.3 nM | 154 nM |  | 0.049 nM |  |  |  |  |  | 
COc1cc2cc(c1Cl)N(C)C(=O)C[C@H](OC(=O)[C@H](C)N(C)C(=O)CCSSC[C@H](NC(=O)CC[C@H](NC(=O)[C@@H]1CSSC[C@H](NC(=O)[C@H](N)Cc3ccccc3)C(=O)N[C@@H](Cc3ccc(O)cc3)C(=O)N[C@H](Cc3c[nH]c4ccccc34)C(=O)N[C@@H](CCCCN)C(=O)N[C@@H]([C@@H](C)O)C(=O)N1)C(N)=O)C(N)=O)[C@]1(C)O[C@H]1[C@H](C)[C@@H]1C[C@@](O)(NC(=O)O1)[C@H](OC)/C=C/C=C(\C)C2 [Conjugate 46] | +2 | 0.3 nM | 195 nM |  | 0.045 nM |  |  |  |  |  | 
COc1cc2cc(c1Cl)N(C)C(=O)C[C@H](OC(=O)[C@H](C)N(C)C(=O)CCSSCCNC(=O)CC[C@H](NC(=O)[C@@H]1CSSC[C@H](NC(=O)[C@H](N)Cc3ccccc3)C(=O)N[C@@H](Cc3ccc(O)cc3)C(=O)N[C@H](Cc3c[nH]c4ccccc34)C(=O)N[C@@H](CCCCN)C(=O)N[C@@H]([C@@H](C)O)C(=O)N1)C(N)=O)[C@]1(C)O[C@H]1[C@H](C)[C@@H]1C[C@@](O)(NC(=O)O1)[C@H](OC)/C=C/C=C(\C)C2 [Conjugate 47] | +2 | 0.7 nM | 210 nM |  | 0.072 nM |  |  |  |  |  | 
COc1cc2cc(c1Cl)N(C)C(=O)C[C@H](OC(=O)[C@H](C)N(C)C(=O)CCSC1CC(=O)N(CCCNC(=O)CC[C@H](NC(=O)[C@@H]3CSSC[C@H](NC(=O)[C@H](N)Cc4ccccc4)C(=O)N[C@@H](Cc4ccc(O)cc4)C(=O)N[C@H](Cc4c[nH]c5ccccc45)C(=O)N[C@@H](CCCCN)C(=O)N[C@@H]([C@@H](C)O)C(=O)N3)C(N)=O)C1=O)[C@]1(C)O[C@H]1[C@H](C)[C@@H]1C[C@@](O)(NC(=O)O1)[C@H](OC)/C=C/C=C(\C)C2 (some centres unmarked) [Conjugate 48] | +2 | 9 nM | 157 nM |  | 0.21 nM |  |  |  |  |  | 
CCNC(=O)[C@@H](NC(=O)[C@@H]1CSSC[C@H](NC(=O)[C@@H](Cc2ccccc2)NCCCSSCCC(=O)N(C)[C@@H](C)C(=O)O[C@@H]2CC(=O)N(C)c3cc(cc(OC)c3Cl)C/C(C)=C/C=C/[C@@H](OC)[C@@]3(O)C[C@H](OC(=O)N3)[C@@H](C)[C@@H]3O[C@@]23C)C(=O)N[C@@H](Cc2ccc(O)cc2)C(=O)N[C@H](Cc2c[nH]c3ccccc23)C(=O)N[C@@H](CCCCN)C(=O)N[C@@H]([C@@H](C)O)C(=O)N1)[C@@H](C)O [Conjugate 50] | +2 | 43 nM | 149 nM | 2.32 |  |  |  |  |  |  | 
COc1cc2cc(c1Cl)N(C)C(=O)C[C@H](OC(=O)[C@H](C)N(C)C(=O)CCSSC(C)(C)[C@H](NC(=O)[C@@H]1CSSC[C@H](NC(=O)[C@H](N)Cc3ccccc3)C(=O)N[C@@H](Cc3ccc(O)cc3)C(=O)N[C@H](Cc3c[nH]c4ccccc34)C(=O)N[C@@H](CCCCNC(=O)[C@@H](NC(=O)[C@@H](N)C(C)C)C(C)C)C(=O)N[C@@H]([C@@H](C)O)C(=O)N1)C(N)=O)[C@]1(C)O[C@H]1[C@H](C)[C@@H]1C[C@@](O)(NC(=O)O1)[C@H](OC)/C=C/C=C(\C)C2 [Conjugate 58] | +2 | 90 nM | 250 nM |  | 3980 nM |  |  |  |  |  | 
